Data set [1] deals with S. pneumoniae DSM 20566 11A11, 3313A6, 704CG4B21, 82BERG72. In words: Antimicrobial assay, broth microdilution MIC, S. pneumoniae strains. The format is cell-based. The following applies: Streptococcus pneumoniae, DSM20566. As to the method:
The antimicrobial activities of the compounds were determined in 96-well plates (Greiner, polystyrene) by the standard NCCLS broth microdilution method (National Committee for Clinical Laboratory Standards 1993. Methods for dilution antimicrobial susceptibility tests for bacteria that grow aerobically, 3rd ed. Approved standard M7-A6. National Committee for Clinical laboratory standards, Wayne, Pa.) with slight modifications. Inocula of the microorganisms were diluted into Mueller-Hinton II (MH, cation adjusted) broth+0.002% P-80 and compared with a 0.5 McFarland standard to give appr. 10^6 colony forming units (CFU)/mL. Aliquots (50 μl) of inoculate were added to 50 μl of MH broth+0.002% P-80 containing the compounds in serial two-fold dilutions. The following microorganisms were used to determine antibiotic selectivity of the compounds: S. pneumoniae DSM 20566 11A11, 3313A6, 704CG4B21, 82BERG72; S. aureus ATCC 29213, ATCC 25923, DSM 11729, DSM 46320, S. aureus 39. Antimicrobial activities of the compounds were expressed as the minimal inhibitory concentration (MIC) in μg/mL at which no visible growth was observed after 18-20 hours of incubation at 36° C.
Background: Broth dilution looks for growth in wells or tubes with falling amounts of substance.

The nature of data set [2]: Plasma stability assay, human plasma. The format is in vitro ADME. To be noted: for Plasma Stability 240 min hum [% remain.]: human plasma, 10 μM, 37° C. The procedure, abridged:
(§1)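 Compounds at 10 μM were incubated at 37 °C in triplicate in sodium citrate-stabilized plasma (human, or pooled mixed-gender CD-1 mouse). Samples taken at 0–240 min were acetonitrile-quenched and analyzed by HPLC/MS/MS. Remaining peak area as % of t0 gave endpoint stability (%) and half-life (min).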

Data set [3] is described as follows: Plasma stability assay, CD-1 mouse plasma. To be noted: for Plasma Stability 240 min mouse/(rat) [% remain.]: CD-1 mouse plasma, 10 μM, 37° C.; for half-life at 10 μM: both sexes, CD-1, mouse. The format is in vitro ADME. The procedure, abridged:
as §1

Data set [4] can be described thus: Metabolic stability assay, human liver microsomes. The format is in vitro ADME. The following applies: for half-life at 10 μM: both sexes, liver microsomes, 1 mg/ml protein, read-out: Metabolic Stability T ½ [min] hum; for half-life at 10 μM / Metabolic Stability 60 min hum [% remain.]: human microsomes, 37° C., 10 μM. The procedure, abridged: (§2)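 Pooled human (50 donors, mixed gender) or CD-1 mouse microsomes at 1 mg/mL protein, 10 μM compound, 100 mM potassium phosphate with NADPH-regenerating system, 37 °C in duplicate. Samples at 0, 5, 10, 20, 60 min analysed by HPLC/MS/MS; turnover as % of 0-min value and T½ (min) calculated.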

The nature of data set [5]: Metabolic stability assay, CD-1 mouse microsomes. The format is in vitro ADME. The following applies: for Metabolic Stability 60 min mouse/(rat) [% remain.] / half-life at 10 μM: CD-1 mouse microsomes, 10 μM, 37° C.; for half-life at 10 μM: both sexes, 1 mg/ml protein, read-out: Metabolic Stability T ½ [min] mouse/(rat). In short, it runs like this:
as §2

Setting [6] is: strain 11A11, read-out: MIC S. pneumoniae 11A11.
Where [7] appears, read: strain 82BERG72, read-out: MIC S. pneumoniae 82BERG72.
Setting [8] is: strain 704CG4B21, read-out: MIC S. pneumoniae 704CG4B21.
[9] abbreviates: strain 3313A6, read-out: MIC S. pneumoniae 3313A6.
Where [10] appears, read: strain DSM 20566 (Table 32.8), read-out: MIC S. pneumoniae DSM 20566.

Values after ≈ are worked out from the molar mass of the structure shown. Like-named read-outs stand apart in the source and are kept apart here. A value given as a limit tells only on which side of the number the result lay.

In general, MIC refers to the lowest concentration found to suppress growth. For `N[C@H]1C[C@H]2COc3cc(F)cc(c3)-c3csc(c3)C(=O)N[C@H](C(=O)Nc3ccc(Cl)cc3)COCCCCC(=O)N2C1` [Ex. 257, (8S,18S,20S)-18-amino-N-(4-chlorophenyl)-25-fluoro-6,15-dioxo-10,22-dioxa-4-thia-7,16-diazatetracyclo[21.3.1.1^2,5.0^16,20]octacosa-1(27),2,5(28),23,25-pentaene-8-carboxamide], the MIC is 8 µg/mL (≈ 13 µM) in data set [1] (setting [6]); 2 µg/mL (≈ 3.25 µM) in data set [1] (setting [7]); 8 µg/mL (≈ 13 µM) in data set [1] (setting [8]); 8 µg/mL (≈ 13 µM) in data set [1] (setting [9]); 8 µg/mL (≈ 13 µM) in data set [1] (setting [10]).
Take `Cc1cccc(NC(=O)[C@@H]2COCCCCC(=O)N3C[C@@H](N)C[C@H]3COc3cc(F)cc(c3)-c3csc(c3)C(=O)N2)c1` [Ex. 259, (8S,18S,20S)-18-amino-25-fluoro-N-(3-methylphenyl)-6,15-dioxo-10,22-dioxa-4-thia-7,16-diazatetracyclo[21.3.1.1^2,5.0^16,20]octacosa-1(27),2,5(28),23,25-pentaene-8-carboxamide]: the MIC in data set [1] (setting [6]) was 16 µg/mL (≈ 26.9 µM); in data set [1] (setting [7]), 4 µg/mL (≈ 6.73 µM); in data set [1] (setting [8]), 8 µg/mL (≈ 13.5 µM); in data set [1] (setting [9]) it was 8 µg/mL (≈ 13.5 µM); in data set [1] (setting [10]) it was 8 µg/mL (≈ 13.5 µM).
Take `N[C@H]1C[C@H]2COc3cc(F)cc(c3)-c3csc(c3)C(=O)N[C@H](C(=O)Nc3ccccc3)COCCCCC(=O)N2C1` [Ex. 247, (8S,18S,20S)-18-amino-25-fluoro-6,15-dioxo-N-phenyl-10,22-dioxa-4-thia-7,16-diazatetracyclo[21.3.1.1^2,5.0^16,20]octacosa-1(27),2,5(28),23,25-pentaene-8-carboxamide]: the MIC in data set [1] (setting [6]) came out at 16 µg/mL (≈ 27.6 µM); in data set [1] (setting [7]), 8 µg/mL (≈ 13.8 µM); in data set [1] (setting [8]), 16 µg/mL (≈ 27.6 µM); in data set [1] (setting [9]) it was 16 µg/mL (≈ 27.6 µM); in data set [1] (setting [10]), 16 µg/mL (≈ 27.6 µM).
With `C[C@H]1COc2cccc(c2)-c2cccc(c2)C(=O)N(C)[C@H](C(=O)NCCN(C)C)CCC(=O)N1` [Ex. 84, (9S,14S)-N-[2-(dimethylamino)ethyl]-9,15-dimethyl-11,16-dioxo-7-oxa-10,15-diazatricyclo[15.3.1.1^2,6]docosa-1(21),2(22),3,5,17,19-hexaene-14-carboxamide], in data set [2], the “Plasma Stability 240 min hum [% remain.]” value was 99 % remain. The half-life at 10 μM in data set [2] (human, plasma) was above 4 h; in data set [3] (plasma), above 4 h; in data set [4], above 60 min; in data set [5], above 60 min. Also, in data set [3], the “Plasma Stability 240 min mouse/(rat) [% remain.]” value is 56 % remain. Also, the “Metabolic Stability 60 min hum [% remain.]” value in data set [4] amounted to 97 % remain. Also, the “Metabolic Stability 60 min mouse/(rat) [% remain.]” value in data set [5] was 71 % remain.
For the molecule `COc1ccc2c(c1)-c1cccc(c1)C(=O)N(C)[C@H](C(=O)NCC(C)C)CCC(=O)N[C@H](C)CO2` [Ex. 54, (10R,15S)-N-isobutyl-4-methoxy-10,16-dimethyl-12,17-dioxo-8-oxa-11,16-diazatricyclo[16.3.1.0^2,7]docosa-1(22),2,4,6,18,20-hexaene-15-carboxamide], the “Plasma Stability 240 min hum [% remain.]” value in data set [2] was 100 % remain. For the same molecule, the half-life at 10 μM in data set [2] (human, plasma) was above 4 h; in data set [3] (plasma), above 4 h; in data set [4], above 60 min; in data set [5], above 60 min. Further, the “Plasma Stability 240 min mouse/(rat) [% remain.]” value in data set [3] is on record as 100 % remain. Besides, the “Metabolic Stability 60 min hum [% remain.]” value in data set [4] stood at 60 % remain. In data set [5], the “Metabolic Stability 60 min mouse/(rat) [% remain.]” value stood at 82 % remain.
Consider `C[C@H]1COc2cccc(c2)-c2cccc(c2)C(=O)N(C)[C@H](C(=O)NCC(=O)O)CCC(=O)N1` [Ex. 83, 2-({[(9S,14S)-9,15-dimethyl-11,16-dioxo-7-oxa-10,15-diazatricyclo[15.3.1.1^2,6]docosa-1(21),2(22),3,5,17,19-hexaen-14-yl]carbonyl}amino)acetic acid], for which, in data set [2], the “Plasma Stability 240 min hum [% remain.]” value came to 85 % remain. Besides, the half-life at 10 μM in data set [2] (human, plasma) is above 4 h; in data set [3] (plasma), above 4 h; in data set [4], above 60 min; in data set [5] it was above 60 min. Further, in data set [3], the “Plasma Stability 240 min mouse/(rat) [% remain.]” value amounted to 93 % remain. The “Metabolic Stability 60 min hum [% remain.]” value in data set [4] worked out at 85 % remain. In addition, in data set [5], the “Metabolic Stability 60 min mouse/(rat) [% remain.]” value was determined as 96 % remain.
As to `CC(C)CNC(=O)[C@@H]1CCC(=O)N[C@@H](C)COc2cccc(c2)-c2cccc(c2)C(=O)N1C` [Ex. 80, (9S,14S)-N-isobutyl-9,15-dimethyl-11,16-dioxo-7-oxa-10,15-diazatricyclo [15.3.1.1^2,6]docosa-1(21),2(22),3,5,17,19-hexaene-14-carboxamide], the “Plasma Stability 240 min hum [% remain.]” value in data set [2] was found to be 90 % remain. Further, the half-life at 10 μM in data set [2] (human, plasma) was above 4 h; in data set [3] (plasma), above 4 h; in data set [4] it was 19 min; in data set [5], 24 min. In data set [3], the “Plasma Stability 240 min mouse/(rat) [% remain.]” value is 84 % remain. In addition, the “Metabolic Stability 60 min hum [% remain.]” value in data set [4] is recorded as 6 % remain. Further, the “Metabolic Stability 60 min mouse/(rat) [% remain.]” value in data set [5] is given as 19 % remain.
Consider `COc1ccc2c(c1)-c1cccc(c1)C(=O)N(C)[C@H](C(=O)N(C)CCN(C)C)CCC(=O)N[C@H](C)CO2` [Ex. 59, (10R15S)-N-[2-(dimethylamino)ethyl]-4-methoxy-N,10,16-trimethyl-12,17-dioxo-8-oxa-11,16-diazatricyclo[16.3.1.0^2,7]docosa-1(22),2,4,6,18,20-hexaene-15-carboxamide], for which the “Plasma Stability T ½ [min] hum” value in data set [2] (human, plasma) was above 240 min. Besides, the “Plasma Stability T ½ [min] mouse/(rat)” value in data set [3] (plasma) is on record as above 240 min. For the same molecule, the “Metabolic Stability T ½ [min] hum” value in data set [4] (human, microsomes) was above 60 min. Also, the “Metabolic Stability T ½ [min] mouse/(rat)” value in data set [5] (microsomes) is on record as above 60 min.
Consider `C[C@H]1COc2cccc(c2)-c2cccc(c2)C(=O)N(C)[C@H](C(=O)NCCO)CCC(=O)N1` [Ex. 81, (9S,14S)-N-(2-hydroxyethyl)-9,15-dimethyl-11,16-dioxo-7-oxa-10,15-diazatricyclo[15.3.1.1^2,6]docosa-1(21),2(22),3,5,17,19-hexaene-14-carboxamide], for which, in data set [2], the “Plasma Stability 240 min hum [% remain.]” value is reported as 88 % remain. In addition, the half-life at 10 μM in data set [2] (human, plasma) was above 4 h; in data set [3] (plasma), above 4 h; in data set [4], above 60 min; in data set [5], above 60 min. The “Plasma Stability 240 min mouse/(rat) [% remain.]” value in data set [3] is 100 % remain. For the same molecule, the “Metabolic Stability 60 min hum [% remain.]” value in data set [4] is listed as 100 % remain. The “Metabolic Stability 60 min mouse/(rat) [% remain.]” value in data set [5] is recorded as 97 % remain.
With `C[C@H]1COc2cccc(c2)-c2cccc(c2)C(=O)N(C)[C@H](C(=O)N2CCOCC2)CCC(=O)N1` [Ex. 87, (9S,14S)-9,15-dimethyl-14-(morpholinocarbonyl)-7-oxa-10,15-diazatricyclo [15.3.1.1^2,6]docosa-1(21),2(22),3,5,17,19-hexaene-11,16-dione], the “Plasma Stability 240 min hum [% remain.]” value in data set [2] is 100 % remain. The half-life at 10 μM is above 4 h in data set [2] (human, plasma); above 4 h in data set [3] (plasma); 27 min in data set [4]; 60 min in data set [5]. Also, the “Plasma Stability 240 min mouse/(rat) [% remain.]” value in data set [3] came to 90 % remain. In addition, in data set [4], the “Metabolic Stability 60 min hum [% remain.]” value was determined as 17 % remain. For the same molecule, in data set [5], the “Metabolic Stability 60 min mouse/(rat) [% remain.]” value came to 63 % remain.
For `COc1ccc2c(c1)-c1cccc(c1)C(=O)N(C)[C@H](C(=O)NCC(=O)O)CCC(=O)N[C@H](C)CO2` [Ex. 57, 2-({[(10R,15S)-4-methoxy-10,16-dimethyl-12,17-dioxo-8-oxa-11,16-diazatricyclo[16.3.1.0^2,7]docosa-1(22),2,4,6,18,20-hexaen-15-yl]carbonyl}amino)acetic acid], in data set [2], the “Plasma Stability 240 min hum [% remain.]” value stood at 100 % remain. The half-life at 10 μM in data set [2] (human, plasma) is above 4 h; in data set [3] (plasma), above 4 h; in data set [4], above 60 min; in data set [5], above 60 min. Besides, in data set [3], the “Plasma Stability 240 min mouse/(rat) [% remain.]” value worked out at 74 % remain. Further, in data set [4], the “Metabolic Stability 60 min hum [% remain.]” value turned out to be 100 % remain. For the same molecule, the “Metabolic Stability 60 min mouse/(rat) [% remain.]” value in data set [5] amounted to 100 % remain.

(Values after patent publication US10017481B2, “Conformationally constrained, fully synthetic macrocyclic compounds” (POLYPHOR AG, priority 2012, dated 2018).)
